Measured values published in patent US5880103A, “Immunomodulatory peptides” (President and Fellows of Harvard College, priority 1995, dated 1999).

Molecular target: T1, HLA-DR1 (Homo sapiens, UniProt P01903+P01911, A100R/D57E/F55L/F60I/F76Y/I96L/L162R/M171V/P40L/Q125E/R42F/V115G/Y59C)
T1 construct: made in house; host or cells: Sf9 insect cells
Assay: Competition of synthetic peptides against 125I-labeled HA 307-319 for binding to "empty" HLA-DR1

Compound	Ki [µM]	relative binding affinity to DR1 (in words) (competitor peptides vs HA 307-319, "empty" DR1, at first approximation)
CSCC[C@H](NC(=O)[C@H](CCCNC(=N)N)NC(=O)[C@H](CCSC)NC(=O)[C@H](CCCCN)NC(=O)[C@H](CO)NC(=O)[C@@H](NC(=O)[C@@H]1CCCN1C(=O)[C@H](CCCCN)NC(=O)[C@@H]1CCCN1C(=O)[C@@H]1CCCN1C(=O)[C@H](CCCCN)NC(=O)[C@@H]1CCCN1C(=O)[C@@H](N)CC(C)C)C(C)C)C(=O)N[C@@H](C)C(=O)N[C@H](C(=O)O)[C@@H](C)O [Ii 97-111]	> 10	–
Ii 107-120: invariant chain peptide named in the text as highest-affinity competitor; probably the Ii 106-120 entry of Table 2 (MRMATPLLMQALPM)	–	highest affinity of all the competitor peptides measured
